ChEMBL document CHEMBL4507287, “Data for DCP probe MRL-650” (2021)

Columns and labels:
[1] = target: 5-hydroxytryptamine receptor 1D (Homo sapiens) (UniProt P28221); conditions: Compound concentration 10.0 uM
[2] = target: BDNF/NT-3 growth factors receptor (Homo sapiens) (UniProt Q16620); conditions: Compound concentration 1000.0 nM
[3] = target: Protein kinase C theta type (Homo sapiens) (UniProt Q04759); conditions: Compound concentration 1000.0 nM
[4] = target: Serine/threonine-protein kinase ULK3 (Homo sapiens) (UniProt Q6PHR2); conditions: Compound concentration 1000.0 nM
[5] = target: Cyclin-dependent kinase-like 2 (Homo sapiens) (UniProt Q92772); conditions: Compound concentration 1000.0 nM
Chain of Cyclin-dependent kinase-like 2 (Homo sapiens) (Q92772 whole entry): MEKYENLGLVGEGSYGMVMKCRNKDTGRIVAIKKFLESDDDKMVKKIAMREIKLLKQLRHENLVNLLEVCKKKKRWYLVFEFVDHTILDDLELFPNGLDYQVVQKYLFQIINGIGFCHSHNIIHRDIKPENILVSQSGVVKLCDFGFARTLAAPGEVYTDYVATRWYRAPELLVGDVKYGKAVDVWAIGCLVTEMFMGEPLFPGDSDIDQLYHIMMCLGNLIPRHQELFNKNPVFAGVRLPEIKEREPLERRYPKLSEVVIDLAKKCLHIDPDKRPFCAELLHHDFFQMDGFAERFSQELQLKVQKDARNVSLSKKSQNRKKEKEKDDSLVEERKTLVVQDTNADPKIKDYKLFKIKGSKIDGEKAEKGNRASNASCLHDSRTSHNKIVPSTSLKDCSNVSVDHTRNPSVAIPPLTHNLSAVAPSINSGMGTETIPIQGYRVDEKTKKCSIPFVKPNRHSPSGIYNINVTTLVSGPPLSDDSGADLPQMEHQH

[6] = target: Ephrin type-A receptor 8 (Homo sapiens) (UniProt P29322); conditions: Compound concentration 1000.0 nM
[7] = target: Dual specificity tyrosine-phosphorylation-regulated kinase 1B (Homo sapiens) (UniProt Q9Y463); conditions: Compound concentration 1000.0 nM
[8] = target: Receptor-type tyrosine-protein kinase FLT3 (Homo sapiens) (UniProt P36888); conditions: Compound concentration 1000.0 nM
Chain of Receptor-type tyrosine-protein kinase FLT3 (Homo sapiens) (P36888 whole entry): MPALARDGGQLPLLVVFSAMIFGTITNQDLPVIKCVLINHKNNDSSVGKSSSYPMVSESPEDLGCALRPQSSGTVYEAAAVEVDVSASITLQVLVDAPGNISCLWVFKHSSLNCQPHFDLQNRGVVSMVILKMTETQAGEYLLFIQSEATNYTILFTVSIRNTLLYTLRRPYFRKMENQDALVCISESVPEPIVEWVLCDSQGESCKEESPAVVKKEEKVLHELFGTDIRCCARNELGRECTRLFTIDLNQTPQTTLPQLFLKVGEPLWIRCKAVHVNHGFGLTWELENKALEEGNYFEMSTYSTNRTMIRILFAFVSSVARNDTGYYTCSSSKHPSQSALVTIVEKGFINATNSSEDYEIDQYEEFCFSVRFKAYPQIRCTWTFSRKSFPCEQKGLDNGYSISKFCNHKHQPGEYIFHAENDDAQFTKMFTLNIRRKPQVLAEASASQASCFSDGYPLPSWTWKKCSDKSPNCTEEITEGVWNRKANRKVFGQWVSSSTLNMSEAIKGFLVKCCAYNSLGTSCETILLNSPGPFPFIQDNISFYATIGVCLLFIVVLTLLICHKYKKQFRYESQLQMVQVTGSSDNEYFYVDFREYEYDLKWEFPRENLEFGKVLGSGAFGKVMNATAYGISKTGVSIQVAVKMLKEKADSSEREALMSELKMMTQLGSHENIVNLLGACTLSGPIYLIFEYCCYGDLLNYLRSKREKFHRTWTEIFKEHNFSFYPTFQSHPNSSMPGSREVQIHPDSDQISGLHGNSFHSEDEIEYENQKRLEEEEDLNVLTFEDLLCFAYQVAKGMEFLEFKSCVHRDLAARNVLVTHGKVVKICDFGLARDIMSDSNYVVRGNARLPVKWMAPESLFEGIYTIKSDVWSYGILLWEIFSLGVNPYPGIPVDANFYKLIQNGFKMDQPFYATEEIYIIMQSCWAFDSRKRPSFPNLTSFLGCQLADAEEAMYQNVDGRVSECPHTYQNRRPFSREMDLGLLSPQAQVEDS

[9] = test system: Mast/stem cell growth factor receptor Kit (Homo sapiens), P10721 [V559D]; conditions: Compound concentration 1000.0 nM
[10] = target: Serine/threonine-protein kinase/endoribonuclease IRE1 (Homo sapiens) (UniProt O75460); conditions: Compound concentration 1000.0 nM
[11] = target: Serine/threonine-protein kinase Sgk1 (Homo sapiens) (UniProt O00141); conditions: Compound concentration 1000.0 nM
[12] = target: Muscarinic acetylcholine receptor M2 (Homo sapiens) (UniProt P08172); conditions: Compound concentration 10.0 uM
Chain of Muscarinic acetylcholine receptor M2 (Homo sapiens) (P08172 whole entry): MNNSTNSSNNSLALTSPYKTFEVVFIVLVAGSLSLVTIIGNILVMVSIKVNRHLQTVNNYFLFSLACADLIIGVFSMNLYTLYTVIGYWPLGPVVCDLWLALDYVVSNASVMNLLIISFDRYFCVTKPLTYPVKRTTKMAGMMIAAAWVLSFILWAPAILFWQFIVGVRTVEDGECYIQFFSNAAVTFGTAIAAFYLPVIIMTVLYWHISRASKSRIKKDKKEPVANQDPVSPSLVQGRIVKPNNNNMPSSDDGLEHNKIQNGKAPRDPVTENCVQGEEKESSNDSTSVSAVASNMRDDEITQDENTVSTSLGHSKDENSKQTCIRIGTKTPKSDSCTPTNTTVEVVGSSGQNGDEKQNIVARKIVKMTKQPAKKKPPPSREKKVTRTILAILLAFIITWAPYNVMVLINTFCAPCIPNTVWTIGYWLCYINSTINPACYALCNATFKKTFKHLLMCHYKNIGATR

[13] = target: Mitogen-activated protein kinase 11 (Homo sapiens) (UniProt Q15759); conditions: Compound concentration 1000.0 nM
Chain of Mitogen-activated protein kinase 11 (Homo sapiens) (Q15759 whole entry): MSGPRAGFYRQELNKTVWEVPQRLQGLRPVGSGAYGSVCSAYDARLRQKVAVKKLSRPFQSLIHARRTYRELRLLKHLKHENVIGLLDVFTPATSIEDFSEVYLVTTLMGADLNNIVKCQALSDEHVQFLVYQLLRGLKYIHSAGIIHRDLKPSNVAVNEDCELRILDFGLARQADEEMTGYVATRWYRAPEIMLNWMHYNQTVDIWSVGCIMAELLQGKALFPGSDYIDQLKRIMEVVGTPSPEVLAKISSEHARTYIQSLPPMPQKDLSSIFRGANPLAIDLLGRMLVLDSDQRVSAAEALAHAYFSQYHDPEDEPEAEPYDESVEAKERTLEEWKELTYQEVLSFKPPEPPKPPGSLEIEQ

[14] = target: Platelet-derived growth factor receptor alpha (Homo sapiens) (UniProt P16234); conditions: Compound concentration 1000.0 nM
[15] = test system: Mast/stem cell growth factor receptor Kit (Homo sapiens), P10721 [V559D,T670I]; conditions: Compound concentration 1000.0 nM
[16] = target: Serine/threonine-protein kinase PLK2 (Homo sapiens) (UniProt Q9NYY3); conditions: Compound concentration 1000.0 nM
[17] = target: Rho-associated protein kinase 2 (Homo sapiens) (UniProt O75116); conditions: Compound concentration 1000.0 nM
[18] = target: Receptor-interacting serine/threonine-protein kinase 4 (Homo sapiens) (UniProt P57078); conditions: Compound concentration 1000.0 nM
[19] = target: Serine/threonine-protein kinase PAK 4 (Homo sapiens) (UniProt O96013); conditions: Compound concentration 1000.0 nM
Chain of Serine/threonine-protein kinase PAK 4 (Homo sapiens) (O96013 whole entry, looked up): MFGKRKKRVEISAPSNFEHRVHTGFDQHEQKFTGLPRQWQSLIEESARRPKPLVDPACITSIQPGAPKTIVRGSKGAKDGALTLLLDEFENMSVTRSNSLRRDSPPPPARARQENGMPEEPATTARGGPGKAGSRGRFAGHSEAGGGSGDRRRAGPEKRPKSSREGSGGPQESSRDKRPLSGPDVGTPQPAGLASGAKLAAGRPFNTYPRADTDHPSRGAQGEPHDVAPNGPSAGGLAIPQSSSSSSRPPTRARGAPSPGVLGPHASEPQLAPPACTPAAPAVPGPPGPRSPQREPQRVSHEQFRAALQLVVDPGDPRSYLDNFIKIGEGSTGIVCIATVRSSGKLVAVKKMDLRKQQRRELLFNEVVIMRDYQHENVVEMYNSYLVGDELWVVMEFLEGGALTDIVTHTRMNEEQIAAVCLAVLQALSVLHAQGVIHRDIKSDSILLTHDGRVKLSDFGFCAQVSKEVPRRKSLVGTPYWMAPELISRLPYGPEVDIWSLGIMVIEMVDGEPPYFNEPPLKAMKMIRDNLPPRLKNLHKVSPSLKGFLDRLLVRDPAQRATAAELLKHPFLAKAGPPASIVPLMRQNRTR

[20] = target: SRSF protein kinase 3 (Homo sapiens) (UniProt Q9UPE1); conditions: Compound concentration 1000.0 nM
[21] = test system: Tyrosine-protein kinase ABL1 (Homo sapiens), P00519 [H396P]; conditions: Compound concentration 1000.0 nM
[22] = target: Interleukin-1 receptor-associated kinase 1 (Homo sapiens) (UniProt P51617); conditions: Compound concentration 1000.0 nM
[23] = target: Hepatocyte growth factor receptor (Homo sapiens) (UniProt P08581); conditions: Compound concentration 1000.0 nM
[24] = target: cGMP-dependent protein kinase 2 (Homo sapiens) (UniProt Q13237); conditions: Compound concentration 1000.0 nM
[25] = target: Calcium/calmodulin-dependent protein kinase type II subunit delta (Homo sapiens) (UniProt Q13557); conditions: Compound concentration 1000.0 nM
[26] = target: Mitogen-activated protein kinase 15 (Homo sapiens) (UniProt Q8TD08); conditions: Compound concentration 1000.0 nM
[27] = target: Ribosomal protein S6 kinase alpha-6 (Homo sapiens) (UniProt Q9UK32); conditions: Compound concentration 1000.0 nM
[28] = test system: Phosphatidylinositol 4,5-bisphosphate 3-kinase catalytic subunit alpha isoform (Homo sapiens), P42336 [Q546K]; conditions: Compound concentration 1000.0 nM
[29] = target: LIM domain kinase 1 (Homo sapiens) (UniProt P53667); conditions: Compound concentration 1000.0 nM
[30] = target: Insulin receptor-related protein (Homo sapiens) (UniProt P14616); conditions: Compound concentration 1000.0 nM
[31] = target: Serine/threonine-protein kinase 3 (Homo sapiens) (UniProt Q13188); conditions: Compound concentration 1000.0 nM
[32] = target: Mitogen-activated protein kinase 6 (Homo sapiens) (UniProt Q16659); conditions: Compound concentration 1000.0 nM
[33] = target: Cyclin-dependent kinase 13 (Homo sapiens) (UniProt Q14004); conditions: Compound concentration 1000.0 nM
[34] = target: Misshapen-like kinase 1 (Homo sapiens) (UniProt Q8N4C8); conditions: Compound concentration 1000.0 nM
[35] = target: Myotonin-protein kinase (Homo sapiens) (UniProt Q09013); conditions: Compound concentration 1000.0 nM
Chain of Myotonin-protein kinase (Homo sapiens) (Q09013 whole entry): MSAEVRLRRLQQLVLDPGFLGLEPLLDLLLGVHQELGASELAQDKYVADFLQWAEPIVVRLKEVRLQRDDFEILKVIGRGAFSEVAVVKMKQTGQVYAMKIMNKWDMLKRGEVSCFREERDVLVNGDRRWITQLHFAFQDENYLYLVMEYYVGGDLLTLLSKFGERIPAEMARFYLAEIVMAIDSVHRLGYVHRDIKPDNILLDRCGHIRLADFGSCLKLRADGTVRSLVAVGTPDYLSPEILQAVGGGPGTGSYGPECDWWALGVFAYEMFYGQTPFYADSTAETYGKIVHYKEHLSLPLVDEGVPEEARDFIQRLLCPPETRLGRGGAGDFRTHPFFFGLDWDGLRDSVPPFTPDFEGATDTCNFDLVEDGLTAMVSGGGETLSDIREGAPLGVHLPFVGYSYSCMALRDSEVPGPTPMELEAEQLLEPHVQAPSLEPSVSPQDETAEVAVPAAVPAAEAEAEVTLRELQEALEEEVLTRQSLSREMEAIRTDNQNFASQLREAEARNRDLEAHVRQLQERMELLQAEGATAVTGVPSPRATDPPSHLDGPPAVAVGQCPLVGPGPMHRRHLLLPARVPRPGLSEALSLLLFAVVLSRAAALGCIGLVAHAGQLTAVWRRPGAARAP

[36] = target: Serine/threonine-protein kinase WNK2 (Homo sapiens) (UniProt Q9Y3S1); conditions: Compound concentration 1000.0 nM
[37] = target: D(1A) dopamine receptor (Homo sapiens) (UniProt P21728); conditions: Compound concentration 10.0 uM
[38] = target: Dual specificity protein kinase CLK3 (Homo sapiens) (UniProt P49761); conditions: Compound concentration 1000.0 nM
[39] = target: Dual specificity protein kinase TTK (Homo sapiens) (UniProt P33981); conditions: Compound concentration 1000.0 nM
[40] = target: Dual specificity protein kinase CLK1 (Homo sapiens) (UniProt P49759); conditions: Compound concentration 1000.0 nM
[41] = target: Ephrin type-A receptor 1 (Homo sapiens) (UniProt P21709); conditions: Compound concentration 1000.0 nM
Chain of Ephrin type-A receptor 1 (Homo sapiens) (P21709 whole entry): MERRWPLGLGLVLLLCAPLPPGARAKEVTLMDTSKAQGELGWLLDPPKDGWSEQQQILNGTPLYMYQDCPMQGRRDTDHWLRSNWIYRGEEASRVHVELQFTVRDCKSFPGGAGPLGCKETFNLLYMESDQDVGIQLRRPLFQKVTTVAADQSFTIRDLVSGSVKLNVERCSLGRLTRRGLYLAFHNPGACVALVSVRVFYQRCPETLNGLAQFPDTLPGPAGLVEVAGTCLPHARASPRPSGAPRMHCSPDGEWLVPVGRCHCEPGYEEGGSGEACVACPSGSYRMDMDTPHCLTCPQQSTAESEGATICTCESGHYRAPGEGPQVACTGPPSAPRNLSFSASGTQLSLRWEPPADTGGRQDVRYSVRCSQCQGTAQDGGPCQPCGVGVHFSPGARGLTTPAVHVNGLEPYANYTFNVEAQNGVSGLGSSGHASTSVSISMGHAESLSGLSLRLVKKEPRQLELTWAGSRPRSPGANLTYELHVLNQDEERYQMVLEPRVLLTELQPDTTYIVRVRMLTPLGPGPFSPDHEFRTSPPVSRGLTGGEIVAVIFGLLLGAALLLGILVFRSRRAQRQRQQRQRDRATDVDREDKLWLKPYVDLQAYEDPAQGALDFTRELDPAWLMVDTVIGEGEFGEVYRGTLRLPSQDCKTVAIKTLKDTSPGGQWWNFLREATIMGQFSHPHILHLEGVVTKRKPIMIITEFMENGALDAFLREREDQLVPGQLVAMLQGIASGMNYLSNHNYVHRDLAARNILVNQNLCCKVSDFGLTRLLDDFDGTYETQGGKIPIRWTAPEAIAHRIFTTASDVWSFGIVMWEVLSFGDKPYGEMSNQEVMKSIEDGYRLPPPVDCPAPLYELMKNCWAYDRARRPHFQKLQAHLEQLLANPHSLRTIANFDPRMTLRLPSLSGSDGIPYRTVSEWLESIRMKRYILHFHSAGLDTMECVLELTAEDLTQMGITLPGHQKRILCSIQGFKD

[42] = target: Non-receptor tyrosine-protein kinase TYK2 (Homo sapiens) (UniProt P29597); conditions: Compound concentration 1000.0 nM
[43] = test system: Tyrosine-protein kinase ABL1 (Homo sapiens), P00519 [T315I]; conditions: Compound concentration 1000.0 nM
[44] = target: Dual specificity protein kinase CLK4 (Homo sapiens) (UniProt Q9HAZ1); conditions: Compound concentration 1000.0 nM
Chain of Dual specificity protein kinase CLK4 (Homo sapiens) (Q9HAZ1 whole entry, looked up): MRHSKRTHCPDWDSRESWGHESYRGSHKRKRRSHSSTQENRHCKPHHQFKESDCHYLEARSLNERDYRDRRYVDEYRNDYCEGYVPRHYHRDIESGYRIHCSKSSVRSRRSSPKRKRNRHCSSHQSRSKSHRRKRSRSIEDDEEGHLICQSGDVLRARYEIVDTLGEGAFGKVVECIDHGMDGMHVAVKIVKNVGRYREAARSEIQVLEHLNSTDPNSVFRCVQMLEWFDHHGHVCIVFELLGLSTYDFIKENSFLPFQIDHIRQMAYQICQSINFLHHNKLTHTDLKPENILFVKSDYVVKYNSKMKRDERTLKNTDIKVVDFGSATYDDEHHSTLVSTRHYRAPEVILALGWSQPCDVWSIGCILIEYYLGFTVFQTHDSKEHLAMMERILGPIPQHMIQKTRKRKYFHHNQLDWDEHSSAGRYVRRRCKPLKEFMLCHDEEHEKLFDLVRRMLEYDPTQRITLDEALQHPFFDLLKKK

[45] = target: Receptor-type tyrosine-protein kinase FLT3 (Homo sapiens) (UniProt P36888); conditions: Compound concentration 1000.0 nM; remark: listed apart in the source

SMILES: CC(=O)c1c(NS(C)(=O)=O)c2cc(-c3ccc(Cl)cc3)c(-c3ccc(Cl)cc3Cl)nc2n(C)c1=O [MRL-CB1-NC]
- inhibition [1]: 68.5%
- residual activity [2]: 94%
- residual activity [3]: 100%
- residual activity [4]: 80%
- residual activity [5]: 99%
- residual activity [6]: 97%
- residual activity [7]: 100%
- residual activity [8]: 96%
- residual activity [9]: 100%
- residual activity [10]: 77%
- residual activity [11]: 100%
- inhibition [12]: -4.45%
- residual activity [13]: 100%
- residual activity [14]: 88%
- residual activity [15]: 100%
- residual activity [16]: 96%
- residual activity [17]: 100%
- residual activity [18]: 61%
- residual activity [19]: 92%
- residual activity [20]: 100%
- residual activity [21]: 100%
- residual activity [22]: 92%
- residual activity [23]: 100%
- residual activity [24]: 100%
- residual activity [25]: 100%
- residual activity [26]: 100%
- residual activity [27]: 90%
- residual activity [28]: 86%
- residual activity [29]: 88%
- residual activity [30]: 93%
- residual activity [31]: 100%
- residual activity [32]: 100%
- residual activity [33]: 96%
- residual activity [34]: 100%
- residual activity [35]: 89%
- residual activity [36]: 62%
- inhibition [37]: 14.2%
- residual activity [38]: 92%
- residual activity [39]: 100%
- residual activity [40]: 100%
- residual activity [41]: 100%
- residual activity [42]: 94%
- residual activity [43]: 93%
- residual activity [44]: 100%
- residual activity [45]: 92%

SMILES: CC(=O)Nc1c(C(C)=O)c(=O)n(C)c2nc(-c3ccc(Cl)cc3Cl)c(-c3ccc(Cl)cc3)cc12 [NAPHTHYRIDINONE]
- inhibition [1]: 32.9%
- residual activity [2]: 100%
- residual activity [3]: 100%
- residual activity [4]: 75%
- residual activity [5]: 100%
- residual activity [6]: 100%
- residual activity [7]: 35%
- residual activity [8]: 100%
- residual activity [9]: 100%
- residual activity [10]: 100%
- residual activity [11]: 100%
- inhibition [12]: -7.96%
- residual activity [13]: 93%
- residual activity [14]: 100%
- residual activity [15]: 100%
- residual activity [16]: 100%
- residual activity [17]: 100%
- residual activity [18]: 93%
- residual activity [19]: 100%
- residual activity [20]: 100%
- residual activity [21]: 100%
- residual activity [22]: 97%
- residual activity [23]: 100%
- residual activity [24]: 100%
- residual activity [25]: 100%
- residual activity [26]: 100%
- residual activity [27]: 100%
- residual activity [28]: 100%
- residual activity [29]: 100%
- residual activity [30]: 100%
- residual activity [31]: 100%
- residual activity [32]: 100%
- residual activity [33]: 100%
- residual activity [34]: 100%
- residual activity [35]: 100%
- residual activity [36]: 95%
- inhibition [37]: 2.02%
- residual activity [38]: 100%
- residual activity [39]: 100%
- residual activity [40]: 100%
- residual activity [41]: 100%
- residual activity [42]: 100%
- residual activity [43]: 100%
- residual activity [44]: 100%
- residual activity [45]: 100%
